Consider 1 cell line from the supplement of paper PMC10307832.

Holding throughout (assay): relative viability (nuclei count vs DMSO), 5 days (fraction); higher = more cells survive
Compound in assay [1]: CCn1c(-c2nonc2N)nc2cnc(Oc3cccc(NC(=O)c4ccc(OCCN5CCOCC5)cc4)c3)cc21 + COc1cccc2cc(-c3nc([C@H]4CC[C@H](C(=O)O)CC4)n4ncnc(N)c34)[nH]c12 [OSI-027] (partner 0.5 µM)
An outline of the steps:
(§1)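 Values are medians from duplicate plates. Each reflects relative viability, defined as the nuclei count of treated wells over that of vehicle wells. Lung cancer cell lines in 1536-well plates were pin-tool dosed one day after seeding with one drug alone or with a fixed anchor-drug dose plus five library-drug doses (not always all listed) in √10 steps, then fixed, stained and imaged at 4× after 5 days.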

Compound in assay [2]: CCC1=CN=CN=C1N2CCN(CC2)CC3=NC4=C(N3)C=C(C=C4)C(F)(F)F + CC(=O)c1c(C)c2cnc(Nc3ccc(N4CCNCC4)cn3)nc2n(C2CCCC2)c1=O [Palbociclib] (partner 0.5 µM)
An outline of the steps:
as §1

Compound in assay [3]: CCC1=CN=CN=C1N2CCN(CC2)CC3=NC4=C(N3)C=C(C=C4)C(F)(F)F + O=C(c1cc(Cc2n[nH]c(=O)c3ccccc23)ccc1F)N1CCN(C(=O)C2CC2)CC1 [Olaparib] (partner 8 µM)
The method in brief:
as §1

Compound in assay [4]: CCC1=CN=CN=C1N2CCN(CC2)CC3=NC4=C(N3)C=C(C=C4)C(F)(F)F + C[C@@H](Oc1cc(-c2cnn(C3CCNCC3)c2)cnc1N)c1c(Cl)ccc(F)c1Cl [Crizotinib] (partner 1 µM)
The method in brief: as §1

For the cell line UMC-11, the relative viability in assay [1] (first compound 0.04 µM) was 0.44; in assay [1] (first compound 0.1265 µM), 0.41; in assay [1] (first compound 0.4 µM), 0.355; in assay [1] (first compound 1.265 µM) it was 0.208; in assay [1] (first compound 4 µM), 0.179; in assay [2] (first compound 0.04 µM), 0.331. Also, the relative viability in assay [2] (first compound 0.1265 µM) came to 0.315; in assay [2] (first compound 0.4 µM), 0.306; in assay [2] (first compound 1.265 µM), 0.221; in assay [2] (first compound 4 µM) it was 0.257; in assay [3] (first compound 0.04 µM) it was 0.393; in assay [3] (first compound 0.1265 µM), 0.392. In addition, the relative viability came to 0.359 in assay [3] (first compound 0.4 µM); 0.32 in assay [3] (first compound 1.265 µM); 0.332 in assay [3] (first compound 4 µM); 0.572 in assay [4] (first compound 0.04 µM); 0.611 in assay [4] (first compound 0.1265 µM); 0.621 in assay [4] (first compound 0.4 µM). In addition, the relative viability in assay [4] (first compound 1.265 µM) was 0.615; in assay [4] (first compound 4 µM) it was 0.906.
